target: GABAA central benzodiazepine receptor; assay: Benzodiazepine Binding Assay; details: read-out: BZ binding Assay IC50; 1 nM (3H)-flunitrazepam, rat whole brain (except cerebellum) membranes, 60 minutes at 25° C.

Going from `Cc1c2c(=O)n(-c3ccccc3)nc-2c2ccccc2n1C(=O)N1CCN(C)CC1` [Compd 44, 4-Methyl-5-(4-methylpiperazine-1-carbonyl)-2-phenyl-2,5-dihydro-pyrazolo[4,3-c]quinolin-3-one] to `Cc1c2c(=O)n(-c3ccccc3)nc-2c2cc(F)c(F)cc2n1C(=O)N1CCN(C)CC1` [Compd 47, 5-(4-Methylpiperazine-1-carbonyl)-7,8-difluoro-4-methyl-2-phenyl-2,5-dihydro-pyrazolo-(4,3-c)quinolin-3-one], the IC50 rises from under 1000 nM to over 1000 nM. The first is the more potent here.

`CN1CCN(C(=O)n2cc3c(=O)n(-c4ccccc4)nc-3c3cc(C(F)(F)F)ccc32)CC1` [Compd 45, 5-(4-Methylpiperazine-1-carbonyl)-2-phenyl-8-trifluoromethyl-2,5-dihydro-pyrazolo[4,3-c]quinolin-3-one] and `CC(C)N1CCN(C(=O)n2cc3c(=O)n(-c4ccccc4)nc-3c3cc(C(F)(F)F)ccc32)CC1` [Compd 46, 5-(4-Isopropyl-piperazine-1-carbonyl)-2-phenyl-8-trifluoromethyl-2,5-dihydro-pyrazolo[4,3-c]quinolin-3-one] cannot be ordered by IC50: under 1000 nM for the first, under 1 nM for the second.

`CN1CCN(C(=O)n2cc3c(=O)n(-c4ccsc4)nc-3c3cc(F)c(F)cc32)CC1` [Compd 49, 5-(4-Methylpiperazine-1-carbonyl)-2-(thiophen-3-yl)-7,8-difluoro-2,5-dihydro-pyrazolo[4,3-c]quinolin-3-one] and `O=C(N1CCC(O)CC1)n1cc2c(=O)n(-c3ccsc3)nc-2c2cc(F)c(F)cc21` [Compd 50, 5-(4-Hydroxypiperidine-1-carbonyl)-2-(thiophen-3-yl)-7,8-difluoro-2,5-dihydro-pyrazolo[4,3-c]quinolin-3-one] cannot be ordered by IC50: under 1000 nM for the first, under 1000 nM for the second.

Compared with `O=C(N1CCC(O)CC1)n1cc2c(=O)n(-c3ccccc3)nc-2c2cc(F)c(F)cc21` [Compd 51, 5-(4-Hydroxypiperidine-1-carbonyl)-2-phenyl-7,8-difluoro-2,5-dihydro-pyrazolo[4,3-c]quinolin-3-one], `CN1CCCN(C(=O)n2cc3c(=O)n(-c4ccccc4)nc-3c3cc(F)c(F)cc32)CC1` [Compd 52, 5-(4-Methylperhydro[1,4]-diazepine-1-carbonyl)-7,8-difluoro-2-phenyl-2,5-dihydro-pyrazolo[4,3-c]quinolin-3-one] is lower in IC50: over 1000 nM for the first, under 1000 nM for the second.

With `CC(C)N1CCN(C(=O)n2cc3c(=O)n(-c4ccccn4)nc-3c3cc(F)c(F)cc32)CC1` [Compd 53, 5-(4-Isopropylpiperazine-1-carbonyl)-7,8-difluoro-2-(2′-pyridyl)-2,5-dihydro-pyrazolo-[4,3-c]quinolin-3-one] the IC50 was over 1000 nM.
